# Legend:
# Type in all cases: functional
# ACHN [1] = assay: Cytotoxicity against human ACHN cells assessed as cellular growth at 0.1 uM after 48 hrs by SRB assay relative to control
# UACC-62 [2] = assay: Cytotoxicity against human UACC62 cells assessed as cellular growth at 0.01 uM after 48 hrs by SRB assay relative to control
# M14 [3] = assay: Cytotoxicity against human M14 cells after 48 hrs by SRB assay; conditions: M14, 48 h
# 786-0 [4] = assay: Cytotoxicity against human 786-0 cells assessed as cellular growth at 100 uM after 48 hrs by SRB assay relative to control
# NCI-H23 = assay: Cytotoxicity against human NCI-H23 cells assessed as cellular growth at 1 uM after 48 hrs by SRB assay relative to control
# OVCAR-8 = assay: Cytotoxicity against human OVCAR8 cells assessed as cellular growth at 100 uM after 48 hrs by SRB assay relative to control
# HL-60(TB) = assay: Cytotoxicity against human HL-60(TB) cells assessed as cellular growth at 0.01 uM after 48 hrs by SRB assay relative to control
# IGROV-1 [5] = assay: Cytotoxicity against human IGROV1 cells assessed as cellular growth at 1 uM after 48 hrs by SRB assay relative to control
# KM12 [6] = assay: Cytotoxicity against human KM12 cells assessed as cellular growth at 1 uM after 48 hrs by SRB assay relative to control
# IGROV-1 [7] = assay: Cytotoxicity against human IGROV1 cells assessed as cellular growth at 0.1 uM after 48 hrs by SRB assay relative to control
# MDA-MB-468 = assay: Cytotoxicity against human MDA-MB-468 cells assessed as cellular growth at 0.01 uM after 48 hrs by SRB assay relative to control
# 786-0 [8] = assay: Cytotoxicity against human 786-0 cells assessed as cellular growth at 0.1 uM after 48 hrs by SRB assay relative to control
# ACHN [9] = assay: Cytotoxicity against human ACHN cells assessed as cellular growth at 1 uM after 48 hrs by SRB assay relative to control
# U-251 [10] = assay: Cytotoxicity against human U251 cells assessed as cellular growth at 0.1 uM after 48 hrs by SRB assay relative to control
# SW-620 = assay: Cytotoxicity against human SW620 cells assessed as cellular growth at 10 uM after 48 hrs by SRB assay relative to control
# COLO 205 = assay: Cytotoxicity against human COLO205 cells after 48 hrs by SRB assay; conditions: COLO 205, 48 h
# SF-268 = assay: Cytotoxicity against human SF268 cells assessed as cellular growth at 0.1 uM after 48 hrs by SRB assay relative to control
# SK-MEL-5 = assay: Cytotoxicity against human SK-MEL-5 cells after 48 hrs by SRB assay; conditions: SK-MEL-5, 48 h
# M14 [11] = assay: Cytotoxicity against human M14 cells assessed as cellular growth at 10 uM after 48 hrs by SRB assay relative to control
# HCT-116 = assay: Cytotoxicity against human HCT116 cells assessed as cellular growth at 1 uM after 48 hrs by SRB assay relative to control
# UO-31 = assay: Cytotoxicity against human UO31 cells assessed as cellular growth at 0.01 uM after 48 hrs by SRB assay relative to control
# KM12 [12] = assay: Cytotoxicity against human KM12 cells assessed as cellular growth at 0.01 uM after 48 hrs by SRB assay relative to control
# LOX IMVI = assay: Cytotoxicity against human LOXIMVI cells after 48 hrs by SRB assay
# UACC-257 = assay: Cytotoxicity against human UACC257 cells assessed as cellular growth at 0.01 uM after 48 hrs by SRB assay relative to control
# A498 = assay: Cytotoxicity against human A498 cells assessed as cellular growth at 0.01 uM after 48 hrs by SRB assay relative to control
# SR [13] = assay: Cytotoxicity against human SR cells assessed as cellular growth at 100 uM after 48 hrs by SRB assay relative to control
# UACC-62 [14] = assay: Cytotoxicity against human UACC62 cells assessed as cellular growth at 1 uM after 48 hrs by SRB assay relative to control
# U-251 [15] = assay: Cytotoxicity against human U251 cells assessed as cellular growth at 0.01 uM after 48 hrs by SRB assay relative to control
# NCI-H522 = assay: Cytotoxicity against human NCI-H522 cells assessed as cellular growth at 0.1 uM after 48 hrs by SRB assay relative to control
# Malme-3M = assay: Cytotoxicity against human MALME-3M cells assessed as cellular growth at 0.1 uM after 48 hrs by SRB assay relative to control
# SR [16] = assay: Cytotoxicity against human SR cells assessed as cellular growth at 0.1 uM after 48 hrs by SRB assay relative to control
# A549 = assay: Cytotoxicity against human A549 cells assessed as cellular growth at 100 uM after 48 hrs by SRB assay relative to control
# [17] = Cytotoxicity against human EKVX cells assessed as cellular growth at 1 uM after 48 hrs by SRB assay relative to control
# [18] = Cytotoxicity against human NCI-ADR-RES cells assessed as cellular growth at 0.01 uM after 48 hrs by SRB assay relative to control
# OVCAR-5 [19] = assay: Cytotoxicity against human OVCAR5 cells assessed as cellular growth at 100 uM after 48 hrs by SRB assay relative to control
# KM12 [20] = assay: Cytotoxicity against human KM12 cells assessed as cellular growth at 100 uM after 48 hrs by SRB assay relative to control
# TK-10 = assay: Cytotoxicity against human TK10 cells assessed as cellular growth at 100 uM after 48 hrs by SRB assay relative to control
# [21] = Cytotoxicity against human NCI-ADR-RES cells assessed as cellular growth at 100 uM after 48 hrs by SRB assay relative to control
# OVCAR-5 [22] = assay: Cytotoxicity against human OVCAR5 cells assessed as cellular growth at 0.1 uM after 48 hrs by SRB assay relative to control
# MDA-MB-231 = assay: Cytotoxicity against human MDA-MB-231 cells assessed as cellular growth at 100 uM after 48 hrs by SRB assay relative to control
# [23] = read-out: LC50 (the source's name)
# [24] = read-out: pLC50 (the source's name) (converted)
compound,measurement,setting,value
O=C(CCCn1c2c(sc3ccccc32)c(=O)n2nnc(-c3ccccc3)c12)NCCc1c[nH]cn1,Activity,ACHN [1],100%
same,Activity,UACC-62 [2],99%
same,GI50,M14 [3]; read-out: GI50,0.327 µM
same,TGI,M14 [3]; read-out: TGI,2.05 µM
same,GI50,M14 [3]; read-out: pGI50 (converted),0.324 µM
same,TGI,M14 [3]; read-out: pTGI (converted),2.04 µM
same,Activity,786-0 [4],-68%
same,Activity,NCI-H23,65%
same,Activity,OVCAR-8,-40%
same,Activity,HL-60(TB),93%
same,Activity,IGROV-1 [5],41%
same,Activity,KM12 [6],39%
same,Activity,IGROV-1 [7],50%
same,Activity,MDA-MB-468,102%
same,Activity,786-0 [8],62%
same,Activity,ACHN [9],83%
same,Activity,U-251 [10],54%
same,Activity,SW-620,-84.52%
same,GI50,COLO 205; read-out: GI50,0.332 µM
same,CC50,COLO 205; [23],5.9 µM
same,TGI,COLO 205; read-out: TGI,2.23 µM
same,GI50,COLO 205; read-out: pGI50 (converted),0.331 µM
same,CC50,COLO 205; [24],5.89 µM
same,TGI,COLO 205; read-out: pTGI (converted),2.24 µM
same,Activity,SF-268,93%
same,GI50,SK-MEL-5; read-out: GI50,2.02 µM
same,CC50,SK-MEL-5; [23],33.2 µM
same,TGI,SK-MEL-5; read-out: TGI,11 µM
same,GI50,SK-MEL-5; read-out: pGI50 (converted),2.04 µM
same,CC50,SK-MEL-5; [24],33.1 µM
same,TGI,SK-MEL-5; read-out: pTGI (converted),11 µM
same,Activity,M14 [11],-80.56%
same,Activity,HCT-116,-27%
same,Activity,UO-31,104%
same,Activity,KM12 [12],106%
same,GI50,LOX IMVI; read-out: GI50,1.51 µM
same,CC50,LOX IMVI; [23],5.49 µM
same,TGI,LOX IMVI; read-out: TGI,2.88 µM
same,GI50,LOX IMVI; read-out: pGI50 (converted),1.51 µM
same,CC50,LOX IMVI; [24],5.5 µM
same,TGI,LOX IMVI; read-out: pTGI (converted),2.88 µM
same,Activity,UACC-257,108%
same,Activity,A498,93%
same,Activity,SR [13],-100%
same,Activity,UACC-62 [14],94%
same,Activity,U-251 [15],78%
same,Activity,NCI-H522,42%
same,Activity,Malme-3M,101%
same,Activity,SR [16],85%
same,Activity,A549,-2%
same,Activity,[17],79%
same,Activity,[18],101%
same,Activity,OVCAR-5 [19],-80%
same,Activity,KM12 [20],-100%
same,Activity,TK-10,-79%
same,Activity,[21],32%
same,Activity,OVCAR-5 [22],36%
same,Activity,MDA-MB-231,-100%
CN1CCN(CCCn2c3c(sc4ncccc43)c(=O)n3nnc(-c4ccccc4)c23)CC1,Activity,ACHN [1],91%
same,Activity,UACC-62 [2],91%
same,GI50,M14 [3]; read-out: GI50,1.87 µM
same,CC50,M14 [3]; [23],7.16 µM
same,TGI,M14 [3]; read-out: TGI,3.66 µM
same,GI50,M14 [3]; read-out: pGI50 (converted),1.86 µM
same,CC50,M14 [3]; [24],7.24 µM
same,TGI,M14 [3]; read-out: pTGI (converted),3.63 µM
same,Activity,786-0 [4],-58%
same,Activity,NCI-H23,94%
same,Activity,OVCAR-8,-15%
same,Activity,HL-60(TB),98%
same,Activity,IGROV-1 [5],94%
same,Activity,KM12 [6],91%
same,Activity,IGROV-1 [7],96%
same,Activity,MDA-MB-468,94%
same,Activity,786-0 [8],100%
same,Activity,ACHN [9],84%
same,Activity,U-251 [10],100%
same,Activity,SW-620,-63%
same,GI50,COLO 205; read-out: GI50,1.63 µM
same,CC50,COLO 205; [23],6.42 µM
same,TGI,COLO 205; read-out: TGI,3.24 µM
same,GI50,COLO 205; read-out: pGI50 (converted),1.62 µM
same,CC50,COLO 205; [24],6.46 µM
same,TGI,COLO 205; read-out: pTGI (converted),3.24 µM
same,Activity,SF-268,89%
same,GI50,SK-MEL-5; read-out: GI50,1.7 µM
same,CC50,SK-MEL-5; [23],5.81 µM
same,TGI,SK-MEL-5; read-out: TGI,3.14 µM
same,GI50,SK-MEL-5; read-out: pGI50 (converted),1.7 µM
same,CC50,SK-MEL-5; [24],5.75 µM
same,TGI,SK-MEL-5; read-out: pTGI (converted),3.16 µM
same,Activity,M14 [11],-75%
same,Activity,HCT-116,88%
same,Activity,UO-31,66%
same,Activity,KM12 [12],101%
same,GI50,LOX IMVI; read-out: GI50,1.66 µM
same,TGI,LOX IMVI; read-out: TGI,3.36 µM
same,GI50,LOX IMVI; read-out: pGI50 (converted),1.66 µM
same,TGI,LOX IMVI; read-out: pTGI (converted),3.39 µM
same,Activity,UACC-257,94%
same,Activity,A498,67%
same,Activity,SR [13],-42%
same,Activity,UACC-62 [14],84%
same,Activity,U-251 [15],97%
same,Activity,NCI-H522,97%
same,Activity,Malme-3M,81%
same,Activity,SR [16],104%
same,Activity,A549,-42%
same,Activity,[17],95%
same,Activity,[18],96%
same,Activity,OVCAR-5 [19],-44%
same,Activity,KM12 [20],-83%
same,Activity,TK-10,-47%
same,Activity,[21],-62%
same,Activity,OVCAR-5 [22],102%
same,Activity,MDA-MB-231,-42%

# Source: ChEMBL document CHEMBL2401728, “An unexpected Dimroth rearrangement leading to annelated thieno[3,2-d][1,2,3]triazolo[1,5-a]pyrimidines with potent antitumor activity” (Eur J Med Chem, 2013)
